Here are results for eight compounds from patent publication US12077503B2, “Substituted cyclic amides and their use as herbicides” (FMC CORPORATION, priority 2015, dated 2024).

Structures are written as SMILES. Read-outs that look alike come from different tables or passages of the source.

What all share (assay): Test A preemergence
What all share (format): in vivo

One assay deals with Kochia (Kochia scoparia). Conditions: Bassia scoparia, pre-emergence, 240 h; for pest or weed control at 125 g/ha: 125 g ai/ha; for pest or weed control at 500 g/ha: 500 g ai/ha. In short, it runs like this:
(§1)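 Preemergence directed soil spray on seeded pots, or postemergence application to plants 2–10 cm, one- to two-leaf. Solvent mixture non-phytotoxic, with surfactant. Scored ~10 d later, visually, 0–100 vs untreated.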

The test system of assay [1] is barnyardgrass (Echinochloa crus-galli). Conditions: Echinochloa crus-galli, pre-emergence, 240 h; for pest or weed control at 125 g/ha: 125 g ai/ha; for pest or weed control at 500 g/ha: 500 g ai/ha. In short, it runs like this: as §1
Assay [2] deals with giant foxtail (Setaria faberii). Conditions: Setaria faberi, pre-emergence, 240 h; for pest or weed control at 125 g/ha: 125 g ai/ha; for pest or weed control at 500 g/ha: 500 g ai/ha. Summed up:
as §1

The test system of assay [3] is ragweed (common ragweed, Ambrosia elatior). Conditions: Ambrosia artemisiifolia, pre-emergence, 240 h; for pest or weed control at 125 g/ha: 125 g ai/ha; for pest or weed control at 500 g/ha: 500 g ai/ha. In short, it runs like this: as §1
The subject of assay [4] is ryegrass, Italian (Italian ryegrass, Lolium multiflorum). Conditions: Lolium multiflorum, pre-emergence, 240 h; for pest or weed control at 125 g/ha: 125 g ai/ha; for pest or weed control at 500 g/ha: 500 g ai/ha. Summed up: as §1
The mark [5] stands for this setting: preemergence, 0 to 100 scale where 0 is no effect and 100 is complete control, read-out: Kochia plant response rating.
The mark [6] stands for this setting: Preemergence, visual injury vs untreated controls after approximately 10 d, read-out: Kochia plant response rating (0 to 100 scale where 0 is no effect and 100 is complete control).
[7] abbreviates: preemergence, 0 to 100 scale where 0 is no effect and 100 is complete control, read-out: Barnyardgrass plant response rating.
The mark [8] stands for this setting: Preemergence, visual injury vs untreated controls after approximately 10 d, read-out: Barnyardgrass plant response rating (0 to 100 scale where 0 is no effect and 100 is complete control).
[9] abbreviates: preemergence, 0 to 100 scale where 0 is no effect and 100 is complete control, read-out: Foxtail, Giant plant response rating.
The mark [10] stands for this setting: Preemergence, visual injury vs untreated controls after approximately 10 d, read-out: Foxtail, Giant plant response rating (0 to 100 scale where 0 is no effect and 100 is complete control).
The mark [11] stands for this setting: preemergence, 0 to 100 scale where 0 is no effect and 100 is complete control, read-out: Ragweed plant response rating.
Where [12] appears, read: Preemergence, visual injury vs untreated controls after approximately 10 d, read-out: Ragweed plant response rating (0 to 100 scale where 0 is no effect and 100 is complete control).
Setting [13] is: preemergence, 0 to 100 scale where 0 is no effect and 100 is complete control, read-out: Ryegrass, Italian plant response rating.
[14] abbreviates: Preemergence, visual injury vs untreated controls after approximately 10 d, read-out: Ryegrass, Italian plant response rating (0 to 100 scale where 0 is no effect and 100 is complete control).
Where [15] appears, read: Preemergence, visual injury rating after approximately 10 d, read-out: Kochia plant response rating (0 to 100 scale, 0 is no effect, 100 is complete control).
[16] abbreviates: preemergence, visual injury rating about 10 d after treatment, 0 to 100 scale (0 no effect, 100 complete control), read-out: Kochia plant response rating.
The mark [17] stands for this setting: Preemergence, visual injury rating after approximately 10 d, read-out: Barnyardgrass plant response rating (0 to 100 scale, 0 is no effect, 100 is complete control).
Where [18] appears, read: preemergence, visual injury rating about 10 d after treatment, 0 to 100 scale (0 no effect, 100 complete control), read-out: Barnyardgrass plant response rating.
Setting [19] is: Preemergence, visual injury rating after approximately 10 d, read-out: Foxtail, Giant plant response rating (0 to 100 scale, 0 is no effect, 100 is complete control).
[20] abbreviates: preemergence, visual injury rating about 10 d after treatment, 0 to 100 scale (0 no effect, 100 complete control), read-out: Foxtail, Giant plant response rating.
The mark [21] stands for this setting: Preemergence, visual injury rating after approximately 10 d, read-out: Ragweed plant response rating (0 to 100 scale, 0 is no effect, 100 is complete control).
The mark [22] stands for this setting: preemergence, visual injury rating about 10 d after treatment, 0 to 100 scale (0 no effect, 100 complete control), read-out: Ragweed plant response rating.
Where [23] appears, read: Preemergence, visual injury rating after approximately 10 d, read-out: Ryegrass, Italian plant response rating (0 to 100 scale, 0 is no effect, 100 is complete control).
Setting [24] is: preemergence, visual injury rating about 10 d after treatment, 0 to 100 scale (0 no effect, 100 complete control), read-out: Ryegrass, Italian plant response rating.
Setting [25] is: preemergence, 0 to 100 scale where 0 is no effect and 100 is complete control, approx. 10 d, read-out: Kochia plant response rating.
The mark [26] stands for this setting: preemergence, 0 to 100 scale where 0 is no effect and 100 is complete control, approx. 10 d, read-out: Barnyardgrass plant response rating.
Setting [27] is: preemergence, 0 to 100 scale where 0 is no effect and 100 is complete control, approx. 10 d, read-out: Foxtail, Giant plant response rating.
Setting [28] is: preemergence, 0 to 100 scale where 0 is no effect and 100 is complete control, approx. 10 d, read-out: Ragweed plant response rating.
[29] abbreviates: preemergence, 0 to 100 scale where 0 is no effect and 100 is complete control, approx. 10 d, read-out: Ryegrass, Italian plant response rating.

Consider `CSc1ccccc1NC(=O)[C@H]1C(=O)N(C)C[C@@H]1c1cccc(OC(F)(F)C(F)F)c1` [Compound 862], for which the pest or weed control at 125 g/ha with Kochia (Kochia scoparia) (setting [5]) turned out to be 70%; in assay [1] (setting [7]), 90%; in assay [2] (setting [9]), 90%; in assay [3] (setting [11]), 90%; in assay [4] (setting [13]), 0%. Also, the pest or weed control at 500 g/ha was found to be 70% in the assay with Kochia (Kochia scoparia) (setting [6]); 100% in assay [1] (setting [8]); 90% in assay [2] (setting [10]); 100% in assay [3] (setting [12]); 20% in assay [4] (setting [14]).
As for `CC(C)c1cccc([C@H]2CN(C)C(=O)[C@@H]2C(=O)Nc2ccccc2S(C)(=O)=O)c1` [Compound 820], the pest or weed control at 125 g/ha in the assay with Kochia (Kochia scoparia) (setting [5]) turned out to be 70%; in assay [1] (setting [7]), 90%; in assay [2] (setting [9]), 90%; in assay [3] (setting [11]) it was 20%; in assay [4] (setting [13]), 60%. In addition, the pest or weed control at 500 g/ha was found to be 80% in the assay with Kochia (Kochia scoparia) (setting [6]); 100% in assay [1] (setting [8]); 100% in assay [2] (setting [10]); 60% in assay [3] (setting [12]); 80% in assay [4] (setting [14]).
On to `COc1c(F)ccc([C@H]2CN(C)C(=O)[C@@H]2C(=O)Nc2cccc(F)c2F)c1Cl` [Compound 893], for which the pest or weed control at 125 g/ha is 80% in the assay on Kochia (Kochia scoparia) (setting [5]); 90% in assay [1] (setting [7]); 90% in assay [2] (setting [9]); 40% in assay [3] (setting [11]); 40% in assay [4] (setting [13]). The pest or weed control at 500 g/ha with Kochia (Kochia scoparia) (setting [6]) is 90%; in assay [1] (setting [8]), 100%; in assay [2] (setting [10]), 90%; in assay [3] (setting [12]) it was 70%; in assay [4] (setting [14]), 90%.
On to `Cc1ccc([C@H]2CN(C)C(=O)[C@@H]2C(=O)Nc2cccc(F)c2F)cc1C` [Compound 1039], for which the pest or weed control at 125 g/ha in the assay on Kochia (Kochia scoparia) (setting [15]) was found to be 80%; in assay [1] (setting [17]) it was 90%; in assay [2] (setting [19]), 90%; in assay [3] (setting [21]), 10%; in assay [4] (setting [23]), 60%. Moreover, the pest or weed control at 500 g/ha was determined as 100% with Kochia (Kochia scoparia) (setting [16]); 100% in assay [1] (setting [18]); 100% in assay [2] (setting [20]); 90% in assay [3] (setting [22]); 80% in assay [4] (setting [24]).
As to `CC(C)COc1cccc([C@H]2CN(C)C(=O)[C@@H]2C(=O)Nc2cccc(F)c2F)c1` [Compound 1029], the pest or weed control at 125 g/ha with Kochia (Kochia scoparia) (setting [15]) was 0%; in assay [1] (setting [17]) it was 90%; in assay [2] (setting [19]) it was 90%; in assay [3] (setting [21]) it was 0%; in assay [4] (setting [23]), 70%. The pest or weed control at 500 g/ha in the assay with Kochia (Kochia scoparia) (setting [16]) amounted to 90%; in assay [1] (setting [18]), 90%; in assay [2] (setting [20]), 90%; in assay [3] (setting [22]), 0%; in assay [4] (setting [24]), 90%.
As for `CCOc1ccc([C@H]2CNC(=O)[C@@H]2C(=O)Nc2cccc(F)c2F)cc1` [Compound 907], the pest or weed control at 125 g/ha in the assay on Kochia (Kochia scoparia) (setting [5]) came out at 0%; in assay [1] (setting [7]), 70%; in assay [2] (setting [9]), 80%; in assay [3] (setting [11]), 0%; in assay [4] (setting [13]) it was 0%. Besides, the pest or weed control at 500 g/ha is 20% in the assay on Kochia (Kochia scoparia) (setting [6]); 80% in assay [1] (setting [8]); 90% in assay [2] (setting [10]); 0% in assay [3] (setting [12]); 0% in assay [4] (setting [14]).
For `CN1C[C@H](c2ccc(C(F)(F)F)cc2)[C@@](F)(C(=O)Nc2cccc(F)c2F)C1=O` (racemic) [Compound 1151], the pest or weed control at 125 g/ha with Kochia (Kochia scoparia) (setting [25]) came to 70%; in assay [1] (setting [26]), 90%; in assay [2] (setting [27]), 100%; in assay [3] (setting [28]), 0%; in assay [4] (setting [29]), 70%. Moreover, the pest or weed control at 500 g/ha in the assay on Kochia (Kochia scoparia) (setting [5]) was 80%; in assay [1] (setting [7]), 100%; in assay [2] (setting [9]) it was 100%; in assay [3] (setting [11]), 60%; in assay [4] (setting [13]), 70%.
Regarding `Cc1c(F)cccc1NC(=O)[C@H]1C(=O)N(C)C[C@@H]1c1cc(F)cc(F)c1` [Compound 1140], the pest or weed control at 125 g/ha was 80% in the assay with Kochia (Kochia scoparia) (setting [25]); 90% in assay [1] (setting [26]); 100% in assay [2] (setting [27]); 30% in assay [3] (setting [28]); 30% in assay [4] (setting [29]). Besides, the pest or weed control at 500 g/ha with Kochia (Kochia scoparia) (setting [5]) is 80%; in assay [1] (setting [7]), 100%; in assay [2] (setting [9]) it was 100%; in assay [3] (setting [11]) it was 60%; in assay [4] (setting [13]), 40%.
